Holding throughout (assay type): cell-based, human
Assay [1] concerns U2OS cells. Briefly: Cell-associated IL-6 immunocytochemistry (Cy5 second antibody) combined with intracellular calcium, IN Cell Analyzer 1000. The note with it: 4 hours contact; Example 4, FIG. 8. The procedure:
4. Combination Assay of Intracellular Calcium and Human Interleukin-6 from Calcium Ionophore A23187-Stimulated U2OS Cells on IN Cell Analyzer 1000 4.1 Materials Anti-IL-6 (R&D Systems) Goat anti-human IgG CY™ 5 linked (GE Healthcare) Calcium ionophore A23187 (Sigma) U2OS cells (European Collection of Cell Cultures, Porton Down, UK) 4.2 Method and Results i) U2OS cells were seeded into 96-well tissue culture plates at 6000 cell/well in 100 μl of complete McKoys media and incubated overnight at 37° C., 5% CO2. ii) Cells were stimulated with A23187 for 8 minutes before measurement of a calcium transient on an IN Cell Analyzer 1000 as described in Example 1. […] The results from this assay were measured on an IN Cell Analyzer 1000 using a 10× objective, 505 light pass dichroic 475/535 filter set 200 ms exposure. […] Cells were contacted with the test agent (calcium ionophore A23187) for 4 hours and cell-associated IL-6 measured post cell-stimulation with test agent. After stimulation with the ionophore, the supernatant was decanted and the cells were washed thoroughly X3 with PBS. […] The results were analysed using an object intensity algorithm (IN Cell Investigator software). […]

Assay [2] relates to U2OS cells. Briefly: Calcium transient (Fluo-4 fluorescence) in stimulated U2OS cells, IN Cell Analyzer 1000. The following applies: for cytosolic intracellular calcium (emitted fluorescence of Fluo-4): test agent 1.56-100 μM, over eight minutes, peak and decline, dose dependent, FIG. 1 / FIG. 4. In general terms: Calcium assays in cells follow changes in intracellular calcium, usually with a dye or a luminescent sensor.
Experimental: i) U2OS cells were seeded into 96-well Greiner cluster plates at 6000 cell/well in 100 μl of complete McKoys media and incubated overnight at 37° C., 5% CO2.
ii) Loading buffer was prepared with 42.8 ml of calcium flux buffer with 6.65 ml of 7.5% albumin This buffer was stored at 37° C.
iii) 120 ml of maintenance buffer was prepared with 118.16 ml calcium flux buffer and 1840 μl of 7.5% albumin

The test system of assay [3] is EGFP-NFATc1 transfected U2OS cells. In words: EGFP-NFATc1 translocation assay, Nuclear Trafficking Analysis module. The note with it: 60 minutes incubation; FIG. 11 / FIG. 14. The text has this:
The present patent specification describes a method for monitoring the NFATC1 signalling pathway with a cell-secreted, cell-associated analyte. The assay method is based on the intracellular translocation of an EGFP-NFATc1 fusion protein in stably transfected mammalian cells. NFATc1 is a transcription factor involved in T-cell signalling and tissue development. […] Following activation with agonists these translocate to the nucleus.
The NFAT assay is optimised for image acquisition and analysis on the IN Cell Analysis System (GE Healthcare) using the Nuclear Trafficking-Analysis Module, although the assay can be imaged on other systems. The Nuclear Trafficking-Analysis Module measures the degree of EGFP-NFAT translocation from the cytoplasm to the nucleus on the addition of agonists.
• 1. Incubate the microplate at 37° C., 5% CO2 and 95% humidity. • 2. The day before commencing the assay, seed at 1×10^4 cells per well in 200 μl of growth medium. Incubate for 24 hours at 37° C. If one of the wells on the cell plate is used for flat field correction, it should not contain cells. • 3. […]
• 1. […] Cells were contacted with test agent for a further 3-18 hours and cell associated TNF, IL-8 or PDGF was measured post stimulation with test agent. • 8. […] The results were analysed using an object intensity algorithm (IN Cell Investigator software). […]

In assay [4] the test system is U2OS cells. In words: Cell-associated IL-6, chemiluminescent anti-IL-6-HRP assay on LEADSEEKER imaging system, same cells after the calcium transient. The following applies: after stimulation (A23187 4 hours, histamine overnight); FIG. 3 / FIG. 5.
Experimental: Cells were contacted with the test agent (calcium ionophore A23187) for 4 hours and cell-associated IL-6 measured post cell-stimulation with the test agent. After stimulation, the cell supernatant was decanted, the cells were washed thoroughly X3 with PBS, before incubating with the anti-IL-6 antibody. The cells were washed ×3 with PBS before addition of the chemiluminescent substrate. Results from the calcium transient were obtained prior to the IL-6 results using the same population of cells. The results (FIG. 3) were obtained using a […] ™ Multimodality Imaging System, exposing for 20 seconds, using the chemiluminescent substrate and the luminescent signal reporter (anti-IL-6 labelled with the enzyme horseradish peroxidise).
The results were obtained on the […] ™ Multimodality Imaging System, exposing for 20 seconds, using the chemiluminescent substrate and the luminescent signal reporter (anti-IL-6 labelled with the enzyme horseradish peroxidise).
iv) 5 mg of calcium ionophore A23187 was dissolved in 1 ml of DMSO. The ionophore was subsequently diluted in complete maintenance buffer to give final concentration of ionophore over the range of 1.56-100 μM. Fluo-4 dye was prepared by adding 456 μl DMSO to a 50 μg vial, and the vial was mixed well to provide a Fluo-4 stock concentration of 100 μM. […]
Assay [5] concerns EGFP-NFAT1c transfected U2OS cells. Briefly: Cell-associated PDGF immunofluorescence combined with EGFP-NFAT1c translocation. The note with it: further 3-18 hours contact; FIG. 12. The procedure:
• 1. The day before commencing the assay, seed EGFP-NFATc1 transfected U2OS cells at 1×10^4 cellsper well in 200 μl of growth medium. • 2. On the day of the assay, prepare the test agent (ionomycin, ionomycin+PMA, A23187). These samples are typically prepared in assay medium. • 3. Decant the growth medium from the cell plate, removing all excess liquid and add 200 μl. Using the cell culture medium, wash the cells. Decant the wash. • 4. Add […] assay medium containing test agent. Incubate for 60 minutes. • 5. The total volume is 200 μl. After the suitable incubation period, image the plate on the IN Cell Analyzer 1000 using appropriate filters and dichroic mirror. • 6. Carry out the data analysis using the Nuclear Trafficking Analysis module. • 7. Cells were contacted with test agent for a further 3-18 hours and cell associated TNF, IL-8 or PDGF was measured post stimulation with test agent. • 8. After stimulation with the test agent, the supernatant was decanted and the cells were washed ×3 with PBS. […] The results were analysed using an object intensity algorithm (IN Cell Investigator software). […]

Each structure is given as a SMILES string.

For the compound `CNc1ccc2oc(C[C@H]3O[C@@]4(CC[C@H]3C)O[C@H]([C@H](C)C(=O)c3ccc[nH]3)[C@H](C)C[C@H]4C)nc2c1C(=O)O` [calcium ionophore A23187, Calcium ionophore A23187], the “cell-associated IL-6 with increasing concentration of the ionophore” value in the assay on U2OS cells [1] was “dose-dependent rise”. In the assay with U2OS cells [2] (1.56 μM ionophore, 8 minutes stimulation, FIG. 7), the “intracellular calcium compared with the unstimulated (zero ionophore) control” value was “increase in intracellular calcium”. Further, in the assay with U2OS cells [2] (Example 4, FIG. 8), the “intracellular calcium with increasing concentration of the ionophore” value is given as “dose-dependent rise”. Also, the “cytosolic intracellular calcium (emitted fluorescence of Fluo-4)” value in the assay on U2OS cells [2] is listed as “increase in cytosolic intracellular calcium”. For the same compound, the EGFP-NFAT1c translocation result in assay [3] is reported as “EGFP-NFAT1c cell response”. Also, the “cell-associated IL-6” value in the assay with U2OS cells [4] is given as “increase in cell-associated IL-6”.
For `NCCc1c[nH]cn1` [histamine, Histamine], the “cytosolic intracellular calcium (emitted fluorescence of Fluo-4)” value with U2OS cells [2] is recorded as “increase in cytosolic intracellular calcium”. In addition, the “cell-associated IL-6” value in the assay with U2OS cells [4] is “increase in cell-associated IL-6”.
With `C[C@H](CCC(=O)O)C[C@H](C)C[C@H](C)C(=O)/C=C(\O)[C@H](C)C[C@H](C)C/C=C/[C@@H](C)[C@@H](O)[C@@H](C)[C@@H](O)C[C@@H]1CC[C@@](C)([C@H]2CC[C@@](C)([C@@H](C)O)O2)O1` [ionomycin, Ionomycin], the “cell-associated PDGF release” value in assay [5] was “PDGF release”. The EGFP-NFAT1c translocation entry in assay [3] is given as “EGFP-NFAT1c cell response”.

Source of the values: US8673554B2, “Multiplex cell signalling assays” (Ge Healthcare UK Limited, priority 2008, dated 2014).
